Results taken from patent publication US8466176B2 (priority 2008, dated 2013).

assay: logP(HCOOH) reported with HPLC/MS; settings: HCOOH (formic acid), logP(HCOOH), HPLC/MS

Row | Compound | chromatographic logP
1 | COc1ccc(CON=C(c2ccccc2)c2nnnn2C)nc1Br [Example 125, N-[(6-bromo-5-methoxypyridin-2-yl)methoxy]-1-(1-methyl-1H-tetrazol-5-yl)-1-phenylmethanimine] | 3.13
2 | CSc1cccc(C(=NOCc2csc(N)n2)c2nnnn2C)c1 [4-{[({[3-(methylsulfanyl)phenyl](1-methyl-1H-tetrazol-5-yl)methylene}amino)oxy]methyl}-1,3-thiazol-2-amine] | 1.76
3 | Cn1nnnc1C(=NOCc1cccc(C=NO)n1)c1ccccc1 [Example 177, N-({6-[(hydroxyimino)methyl]pyridin-2-yl}methoxy)-1-(1-methyl-1H-tetrazol-5-yl)-1-phenylmethanimine] | 2.16
4 | CCCCCCN(C=O)c1cccc(C)[n+]1[O-] [N-hexyl-N-(6-methyl-1-oxidopyridin-2-yl)formamide] | 1.82
5 | Cn1nnnc1C(=NOCc1cccc(N(CCC2CCCCC2)C(=O)OC(C)(C)C)n1)c1ccccc1 [Example 141, tert-butyl (2-cyclohexylethyl){6-[({[(1-methyl-1H-tetrazol-5-yl)(phenyl)methylene]amino}oxy)methyl]pyridin-2-yl}carbamate] | 6.56
6 | O=C1c2ccccc2C(=O)N1Cc1cccc(CCl)n1 [2-{[6-(chloromethyl)pyridin-2-yl]methyl}-1H-isoindole-1,3(2H)-dione] | 2.51

same assay, conditions: logP(HCOOH), HPLC/MS

Row | Compound | chromatographic logP
7 | CSc1cccc(C(=NOCc2cccc(N3C(=O)c4ccccc4C3=O)n2)c2nnnn2C)c1 [2-(6-{[({[3-(methylsulfanyl)phenyl](1-methyl-1H-tetrazol-5-yl)methylene}amino)oxy]methyl}pyridin-2-yl)-1H-isoindole-1,3(2H)-dione] | 3.39
8 | Fc1ccc(Br)nc1CBr [6-bromo-2-(bromomethyl)-3-fluoropyridine] | 2.58

same assay, conditions: method [a]: HPLC on reversed phase columns, pH 2.3 with 0.1% phosphoric acid and acetonitrile as eluent

Row | Compound | log p
9 | Cn1nnnc1C(=NOCc1csc(C#C[Si](C)(C)C)n1)c1ccccc1 [Example 138] | 4.59^[a]
10 | CC(=O)OCCCC#Cc1nc(CON=C(c2ccccc2)c2nnnn2C)cs1 [Example 137] | 3.17^[a]

same assay, conditions: method [b]: LC-MS at pH 2.7, 0.1% formic acid in water and acetonitrile, linear gradient 10% to 95% acetonitrile

Row | Compound | log p
11 | Cn1nnnc1C(=NOCc1cccc(C(=O)NC(C)(C)C)n1)c1ccccc1 [Example 86] | 3.37^[b]
12 | CCCC#Cc1nc(CON=C(c2ccccc2)c2nnnn2C)c(Cl)s1 [Example 115] | 4.75^[b]
13 | Cc1nnnn1C(=NOCc1cccc(NC(=S)NC(C)C)n1)c1ccccc1 [Example 12] | 3.22^[b]
14 | Cn1nnnc1C(=NOCc1nc(C#CCCCC#N)sc1Cl)c1ccccc1 [Example 122] | 3.58^[b]
15 | Cn1nnnc1C(=NOCc1nc(C#CCC2CCCCC2)ccc1F)c1ccccc1 [Example 97] | 5.28^[b]
16 | Cc1nnnn1C(=NOCc1cccc(C(=O)O)n1)c1ccccc1 [Example 15] | 1.97^[b]
17 | Cc1nnnn1C(=NOCc1cccc(N=CNC#N)n1)c1ccccc1 [Example 1] | 2.22^[b]
18 | COc1ccc(CON=C(c2ccccc2)c2nnnn2C)nc1C#CCOc1ccccc1 [Example 131] | 3.8^[b]
19 | CCCCCNC(=O)c1cccc(CON=C(c2ccccc2)n2nnnc2C)n1 [Example 16] | 3.52^[b]
20 | Cn1nnnc1C(=NOCc1nc(C#CCCCc2ccccc2)sc1Cl)c1ccccc1 [Example 123] | 5.56^[b]
21 | Cc1nnnn1C(=NOCc1cccc(NC(=S)NC2CCCC2)n1)c1ccccc1 [Example 9] | 3.53^[b]
22 | COC[C@H](C)NC(=O)c1cccc(CON=C(c2ccccc2)c2nnnn2C)n1 [Example 83] | 2.7^[b]

same assay, conditions: method [b]: LC-MS at pH 2.7 with 0.1% formic acid in water and acetonitrile (0.1% formic acid), linear gradient 10% to 95% acetonitrile

Row | Compound | log p
23 | CSc1cccc(C(=NOCc2cccc(NCC3CCCCC3)n2)c2nnnn2C)c1 [Example 292] | 3.02^[b]
24 | CSc1cccc(C(=NOCc2csc(C#CC3CCCCC3)n2)c2nnnn2C)c1 [Example 304] | 5.29^[b]
25 | Cn1nnnc1C(=NOCc1cccc(N(OCCc2ccccc2)C(=O)OC(C)(C)C)n1)c1ccccc1 [Example 281] | 4.89^[b]
26 | CCCCC#Cc1nc(CON=C(c2cccc(SC)c2)c2nnnn2C)cs1 [Example 301] | 4.78^[b]
27 | CCCCONc1cccc(CON=C(c2ccccc2)c2nnnn2C)n1 [Example 286] | 3.39^[b]
28 | Cn1nnnc1C(=NOCc1csc(C#Cc2ccccc2C(F)(F)F)n1)c1ccccc1 [Example 267] | 4.51^[b]
29 | Cn1nnnc1C(=NOCc1cccc(NOCC2CCCCC2)n1)c1ccccc1 [Example 284] | 4.44^[b]
30 | CSc1cccc(C(=NOCc2cccc(NCCC3CCCCC3)n2)c2nnnn2C)c1 [Example 298] | 3.17^[b]
31 | CSc1cccc(C(=NOCc2csc(C#CC3CC3)n2)c2nnnn2C)c1 [Example 303] | 3.99^[b]

same assay, conditions: method [b]: LC-MS, pH 2.7 with 0.1% formic acid in water and acetonitrile (0.1% formic acid), linear gradient 10% to 95% acetonitrile

Row | Compound | log p
32 | Cn1nnnc1C(=NOCc1csc(C#Cc2ccc3ccccc3c2)n1)c1ccccc1 [Example 194] | 4.92^[b]
33 | Cc1sc(C#CCCc2ccccc2)nc1CON=C(c1ccccc1)c1nnnn1C [Example 187] | 4.65^[b]
34 | COc1ccc(C#Cc2nc(CON=C(c3ccccc3)c3nnnn3C)cs2)cc1 [Example 192] | 4.14^[b]
35 | Cn1nnnc1C(=NOCc1cccc(C#Cc2ccccc2F)n1)c1ccccc1 [Example 247] | 4.06^[b]
36 | COc1ccc(CON=C(c2ccccc2)c2nnnn2C)nc1C#CC(C)(C)C [Example 133] | 3.92^[b]
37 | Cn1nnnc1C(=NOCc1csc(C#CCC2CCCCC2)n1)c1cccc(F)c1 [Example 147] | 5.42^[b]
38 | CCc1ccc(C#Cc2cccc(CON=C(c3ccccc3)c3nnnn3C)n2)cc1 [Example 230] | 4.81^[b]
39 | COC(C)(C)C#Cc1nc(CON=C(c2ccccc2)c2nnnn2C)cs1 [Example 196] | 3.53^[b]
40 | Cc1nnnn1C(=NOCc1csc(C#CCC2CCCC2)n1)c1ccccc1 [Example 170] | 4.97^[b]
41 | Cn1nnnc1C(=NOCc1cccc(C#CCCc2ccccc2)n1)c1ccccc1 [Example 210] | 4.29^[b]
42 | Cn1nnnc1C(=NOCc1cccc(C#CCCO)n1)c1ccccc1 [Example 253] | 2.23^[b]
43 | CCCCCC#Cc1nc(CON=C(c2ccccc2)n2nnnc2C)cs1 [Example 167] | 4.92^[b]
44 | CCSCC#Cc1nc(CON=C(c2ccccc2)c2nnnn2C)cs1 [Example 199] | 3.78^[b]
45 | Cn1nnnc1C(=NOCc1cccc(C#CCCC#N)n1)c1ccccc1 [Example 209] | 2.7^[b]
46 | COc1ccc(CON=C(c2ccccc2)c2nnnn2C)nc1C#CC1CCCCC1 [Example 132] | 4.44^[b]
47 | Cc1nnnn1C(=NOCc1csc(C#CCC2CCCCC2)n1)c1ccccc1 [Example 169] | 5.41^[b]
48 | Cn1nnnc1C(=NOCc1cccc(C#CCN2CCOCC2)n1)c1ccccc1 [Example 242] | 1.44^[b]
49 | COC(C)(C)C#Cc1cccc(CON=C(c2ccccc2)c2nnnn2C)n1 [Example 240] | 3.42^[b]
50 | CCCc1ccc(C#Cc2cccc(CON=C(c3ccccc3)c3nnnn3C)n2)cc1 [Example 244] | 5.23^[b]
51 | CCCCC#Cc1nc(CON=C(c2cccc(F)c2)c2nnnn2C)cs1 [Example 149] | 4.51^[b]
52 | CCCCCCC#Cc1cccc(CON=C(c2ccccc2)c2nnnn2C)n1 [Example 235] | 5.11^[b]

same assay, conditions: reversed phase HPLC column, pH 2.7, log p, method [b]: LC-MS at pH 2.7, 0.1% formic acid in water and acetonitrile, linear gradient 10% to 95% acetonitrile

Row | Compound | chromatographic logP
53 | COc1ccc(CON=C(c2ccccc2)c2nnnn2C)nc1Br [Example 125, N-[(6-bromo-5-methoxypyridin-2-yl)methoxy]-1-(1-methyl-1H-tetrazol-5-yl)-1-phenylmethanimine] | 3.13

same assay, conditions: reversed phase HPLC column, pH 2.7, log p, method [b]: LC-MS at pH 2.7 with 0.1% formic acid in water and acetonitrile (0.1% formic acid), linear gradient 10% to 95% acetonitrile

Row | Compound | chromatographic logP
54 | CSc1cccc(C(=NOCc2csc(C#CC3CCCC3)n2)c2nnnn2C)c1 [Example 302] | 4.86
55 | CCCCCCNc1nc(CON=C(c2cccc(SC)c2)c2nnnn2C)cs1 [Example 297] | 3.92
56 | CCCCCCNc1cccc(CON=C(c2cccc(N(C)C)c2)c2nnnn2C)n1 [Example 311] | 2.44

same assay, conditions: reversed phase HPLC column, pH 2.7, log p, method [b]: LC-MS, pH 2.7 with 0.1% formic acid in water and acetonitrile (0.1% formic acid), linear gradient 10% to 95% acetonitrile

Row | Compound | chromatographic logP
57 | Cc1sc(C#CC2CC2)nc1CON=C(c1ccccc1)c1nnnn1C [Example 181] | 3.83

same assay, conditions: reversed phase HPLC columns, pH 2.3, log p, method [a]: HPLC on reversed phase columns, pH 2.3 with 0.1% phosphoric acid and acetonitrile as eluent

Row | Compound | chromatographic logP
58 | Cn1nnnc1C(=NOCc1cccc(C=NO)n1)c1ccccc1 [Example 177, N-({6-[(hydroxyimino)methyl]pyridin-2-yl}methoxy)-1-(1-methyl-1H-tetrazol-5-yl)-1-phenylmethanimine] | 2.16
59 | Cn1nnnc1C(=NOCc1cccc(N(CCC2CCCCC2)C(=O)OC(C)(C)C)n1)c1ccccc1 [Example 141, tert-butyl (2-cyclohexylethyl){6-[({[(1-methyl-1H-tetrazol-5-yl)(phenyl)methylene]amino}oxy)methyl]pyridin-2-yl}carbamate] | 6.56

assay: logP by HPLC on reversed phase columns, method [a], pH 2.3 with 0.1% phosphoric acid and acetonitrile; format: physicochemical; settings: method [a]: pH 2.3, 0.1% phosphoric acid and acetonitrile as eluent; EEC directive 79/831 Annex V.A8, reversed phase HPLC

Row | Compound | log p
60 | CCCCC#Cc1nc(CON=C(c2ccccc2)c2nnnn2C)cs1 [Example 72] | 4.36^[a]
61 | Cn1nnnc1C(=NOCc1cccc(/C=C/Cc2ccccc2)n1)c1ccccc1 [Example 94] | 4.31^[a]
62 | Cn1nnnc1C(=NOCc1cccc(-c2cccc(C(F)(F)F)c2)n1)c1ccccc1 [Example 45] | 4.56^[a]
63 | Cn1nnnc1C(=NOCc1csc(C#CCC2CCCCC2)n1)c1ccccc1 [Example 67] | 5.32^[a]
64 | Cn1nnnc1C(=NOCc1csc(C#CCCCc2ccccc2)n1)c1ccccc1 [Example 62] | 4.78^[a]
65 | CCCCC/C=C/c1nc(CON=C(c2ccccc2)c2nnnn2C)cs1 [Example 81] | 5.05^[a]
66 | Cn1nnnc1C(=NOCc1cccc(/C=C/c2cccc(F)c2)n1)c1ccccc1 [Example 91] | 4.29^[a]
67 | COCC#Cc1nc(CON=C(c2ccccc2)c2nnnn2C)cs1 [Example 71] | 2.92^[a]
68 | CCc1ccc(-c2cccc(CON=C(c3ccccc3)c3nnnn3C)n2)cc1 [Example 38] | 4.7^[a]
69 | Cn1nnnc1C(=NOCc1csc(C#Cc2ccccc2)n1)c1ccccc1 [Example 59] | 4.16^[a]
70 | Cn1nnnc1C(=NOCc1csc(C#CC2CCCC2)n1)c1ccccc1 [Example 69] | 4.49^[a]
71 | Cn1nnnc1C(=NOCc1cccc(C#CC2CCCC2)n1)c1ccccc1 [Example 29] | 4.34^[a]
